In patent US7485667B2, “Acetylenic aryl sulfonate hydroxamic acid tace and matrix metalloproteinase inhibitors” (Wyeth Holdings Corporation, priority 2002, dated 2009):

Legend:
MMP-1 = molecular target: T1, MMP-1 (Homo sapiens, UniProt P03956); assay: MMP-1 inhibition (thiopeptide or fluorescent peptide substrate); assay type: biochemical; conditions: read-out: MMP-1 % Inhib
T1 sequence (P03956 100-469): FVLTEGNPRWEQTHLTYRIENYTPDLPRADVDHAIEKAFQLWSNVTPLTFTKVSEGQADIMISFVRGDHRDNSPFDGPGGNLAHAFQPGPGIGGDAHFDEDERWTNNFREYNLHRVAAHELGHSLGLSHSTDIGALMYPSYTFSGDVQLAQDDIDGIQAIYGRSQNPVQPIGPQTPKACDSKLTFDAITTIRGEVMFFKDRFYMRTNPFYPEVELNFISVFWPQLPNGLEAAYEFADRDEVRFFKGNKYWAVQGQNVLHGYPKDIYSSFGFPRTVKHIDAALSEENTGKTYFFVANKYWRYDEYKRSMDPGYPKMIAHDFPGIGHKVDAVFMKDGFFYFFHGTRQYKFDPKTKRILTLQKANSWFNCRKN
Description: (§1) Test Procedures for Measuring MMP-1 and MMP-13 Inhibition
(§2) These standard pharmacological test procedures are based on the cleavage of a thiopeptide substrates such as Ac-Pro-Leu-Gly(2-mercapto-4-methyl-pentanoyl)-Leu-Gly-OEt by the matrix metalloproteinases MMP-1 or MMP-13 (collagenases) which results in the release of a substrate product that reacts colorimetrically with DTNB (5,5′-dithiobis(2-nitro-benzoic acid)). The enzyme activity is measured by the rate of the color increase. The thiopeptide substrate is made up fresh as a 20 mM stock in 100% DMSO and the DTNB is dissolved in 100% DMSO as a 100 mM stock and stored in the dark at room temperature. Both the substrate and DTNB are diluted together to 1 mM with substrate buffer (50 mM HEPES pH 7.5, 5 mM CaCl2) before use. The stock of enzyme is diluted with buffer (50 mM HEPES, pH 7.5, 5 mM CaCl2, 0.02% Brij) to the desired final concentration. The buffer, enzyme, vehicle or inhibitor, and DTNB/substrate are added in this order to a 96 well plate (total reaction volume of 200 μl) and the increase in color is monitored spectrophotometrically for 5 minutes at 405 nm on a plate reader and the increase in color over time is plotted as a linear line.
(§3) Alternatively, a fluorescent peptide substrate is used. In this test procedure, the peptide substrate contains a fluorescent group and a quenching group. Upon cleavage of the substrate by an MMP, the fluorescence that is generated is quantitated on the fluorescence plate reader. The assay is run in HCBC assay buffer (50 mM HEPES, pH 7.0, 5 mM Ca^+2, 0.02% Brij, 0.5% Cysteine), with human recombinant MMP-1 or MMP-13. The substrate is dissolved in methanol and stored frozen in 1 mM aliquots. For the assay, substrate and enzymes are diluted in HCBC buffer to the desired concentrations. Compounds are added to the 96 well plate containing enzyme and the reaction is started by the addition of substrate. The reaction is read (excitation 340 nm, emission 444 nm) for 10 min. and the increase in fluorescence over time is plotted as a linear line.
(§4) For either the thiopeptide or fluorescent peptide test procedures, the slope of the line is calculated and represents the reaction rate. The linearity of the reaction rate is confirmed (r^2>0.85). The mean (x±sem) of the control rate is calculated and compared for statistical significance (p<0.05) with drug-treated rates using Dunnett's multiple comparison test. Dose-response relationships can be generated using multiple doses of drug and IC50 values with 95% Cl are estimated using linear regression.

MMP-13 = MMP-13 (Homo sapiens, UniProt P45452); assay: MMP-13 inhibition (thiopeptide or fluorescent peptide substrate); assay type: biochemical; conditions: read-out: MMP-13 % Inhib
Description: as §1, §2, §3, §4

[1] = molecular target: TNF-α converting enzyme (TACE) (Homo sapiens, UniProt P78536); assay: TACE inhibition (fluorescent peptidyl substrate); assay type: biochemical
Sequence of TNF-α converting enzyme (TACE) (P78536 215-824, species assumed): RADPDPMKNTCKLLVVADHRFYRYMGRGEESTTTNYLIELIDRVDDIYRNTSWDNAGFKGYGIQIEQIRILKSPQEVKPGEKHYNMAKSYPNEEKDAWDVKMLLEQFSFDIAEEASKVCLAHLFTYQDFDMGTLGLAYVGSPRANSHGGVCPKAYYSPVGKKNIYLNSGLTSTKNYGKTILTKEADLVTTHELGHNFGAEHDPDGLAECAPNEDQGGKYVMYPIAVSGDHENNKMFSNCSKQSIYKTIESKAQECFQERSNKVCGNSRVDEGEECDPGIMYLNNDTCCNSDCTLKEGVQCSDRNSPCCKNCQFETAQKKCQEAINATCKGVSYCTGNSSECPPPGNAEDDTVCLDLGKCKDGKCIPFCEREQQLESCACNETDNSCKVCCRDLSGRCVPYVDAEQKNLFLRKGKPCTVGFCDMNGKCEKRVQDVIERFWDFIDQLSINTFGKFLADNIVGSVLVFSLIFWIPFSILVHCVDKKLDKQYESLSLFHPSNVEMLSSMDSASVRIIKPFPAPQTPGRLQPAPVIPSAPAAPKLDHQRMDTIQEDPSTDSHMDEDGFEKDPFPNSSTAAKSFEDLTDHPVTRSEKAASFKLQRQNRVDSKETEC
Description: Test Procedure for Measuring TACE Inhibition
Using 96-well black microtiter plates, each well receives a solution composed of 10 μL TACE (final concentration 1 μg/mL), 70 μL Tris buffer, pH 7.4 containing 10% glycerol (final concentration 10 mM), and 10 μL of test compound solution in DMSO (final concentration 1 μM, DMSO concentration <1%) and incubated for 10 minutes at room temperature. The reaction is initiated by addition of a fluorescent peptidyl substrate (final concentration 100 μM) to each well and then shaking on a shaker for 5 sec.
The reaction is read (excitation 340 nm, emission 420 nm) for 10 min. and the increase in fluorescence over time is plotted as a linear line. The slope of the line is calculated and represents the reaction rate.
as §4, with “The” for “For either the thiopeptide or fluorescent peptide test procedures, the slope of the line is calculated and represents the reaction rate. The”, “generate” for “generated”

THP-1 cells = assay: THP-1 soluble protein assay (LPS-stimulated THP-1 cells, ELISA); assay type: cell-based; conditions: Homo sapiens
Text: Human Monocytic THP-1 Cell Differentiation Assay for Soluble Proteins (THP-1 Soluble Protein Assay)
Mitogenic stimulation of THP-1 cells cause differentiation into macrophage like cells with concomitant secretion of tumor necrosis factor (TNF-a) and TNF receptor (TNF-R p75/80 and TNF-R p55/60) and Interleukin-8 (IL-8), among other proteins. In addition, non-stimulated THP-1 cells shed both the p75/80 and the p55/60 receptors over time. The release of membrane bound TNF-α and possibly TNF-R p75/80 and TNF-R p55/60, but not IL-8, is mediated by an enzyme called TNF-a converting enzyme or TACE.
THP-1 cells (from ATCC) are a human monocytic cell line which are obtained from the peripheral blood of a person with acute monocytic leukemia. They can be grown in culture and differentiated into macrophage like cells by stimulation with mitogens.
For the assay, THP-1 cells are seeded from an ATCC stock which is previously grown and frozen back at 5×10^6/ml/vial. One vial is seeded into a T25-flask with 16 mls of RPMI-1640 with glutamax (Gibco) media containing 10% fetal bovine serum, 100 units/ml penicillin, 100 μg/ml streptomycin, and 5×10^−5 M 2-mercapto-ethanol (THP-1 media). Each vial of cells are cultured for about two weeks prior to being used for an assay and then are used for only 4 to 6 weeks to screen compounds. Cells are subcultured on Mondays and Thursdays to a concentration of 1×10^5/ml.
To perform an assay, the THP-1 cells are co-incubated in a 24 well plate with […] of a 24 mg/ml stock of Lipopolysacharide (LPS) (Calbiochem Lot# B13189) at 37° C. in 5% CO2 at a concentration of 1.091×10^6 cells/ml (1.1 ml/well) for a total of 24 hours. At the same time, […] of drug, vehicle or THP-1 media is plated in appropriate wells to give a final volume of 1.2 ml/well. Standard and test compounds are dissolved in DMSO at a concentration of 36 mM and diluted from here to the appropriate concentrations in THP-1 media and added to the wells at the beginning of the incubation period to give final concentrations of […], 300 nM, and 100 nM. Cell exposure to DMSO is limited to 0.1% final concentration. Positive control wells are included in the experiment which had mitogen added but no drug. Vehicle control wells are included as well, which are identical to the positive control wells, except that DMSO is added to give a final concentration of 0.083%. Negative control wells are included in the experiment which had vehicle but no mitogen or drug added to the cells. Compounds can be evaluated for their effect on basal (non-stimulated) shedding of the receptors by replacing the LPS with […] of THP-1 media. Plates are placed into an incubator set at 5% CO2 and at 37° C. […]
In addition, at the 24 hours timepoint, and the cells for each treatment group are collected by resuspension in 500 μl/well of THP-1 media and transferred into a FACS tube. […] The samples are run on a Becton Dickinson FaxCaliber FLOW cytometry machine and the amount of dye taken up by each cell is measured in the high red wavelength (FL3). […] The percent of live cells is calculated by the number of cells not stained with PI, divided by the total number of cells in the sample. The viability values calculated for the drug treated groups are compared to the viability value calculated for the vehicle treated mitogen stimulated group (“vehicle positive control”) to determine the “percent change from control”. […]

| inhibition at 10 µM (MMP-1) | inhibition at 10 µM (MMP-13) | IC50 [1] | Structure (SMILES) | inhibition at 1 µM (THP-1 cells) |
| --- | --- | --- | --- | --- |
| 11% | 27% | 31 nM | CC#CCOc1ccc(S(=O)(=O)Oc2ccc(C)cc2C(=O)NO)cc1 [Example 3, 2-[(Hydroxyamino)carbonyl]-4-methylphenyl 4-(2-butynyloxy)benzenesulfonate] | 0% |
| 16% | 64% | 67 nM | CC#CCOc1ccc(S(=O)(=O)Oc2cc3ccccc3cc2C(=O)NO)cc1 [Example 5, 3-[(Hydroxyamino)carbonyl]-2-naphthyl 4-(2-butynyloxy)benzenesulfonate] | 0% |
| 11% | 38% | 19 nM | CC#CCOc1ccc(S(=O)(=O)Oc2c(C)cccc2C(=O)NO)cc1 [Example 1, 2-[(Hydroxyamino)carbonyl]-6-methylphenyl 4-(2-butynyloxy)benzenesulfonate] | 11% |

The next lines start with the compound.

| Structure (SMILES) | inhibition at 10 µM (MMP-1) | inhibition at 10 µM (MMP-13) | IC50 [1] | inhibition at 1 µM (THP-1 cells) |
| --- | --- | --- | --- | --- |
| CC#CCOc1ccc(S(=O)(=O)Oc2c(OC)cccc2C(=O)NO)cc1 [Example 2, 2-[(Hydroxyamino)carbonyl]-6-methoxyphenyl 4-(2-butynyloxy)benzenesulfonate] | 7% | 56% | 13 nM | 1% |
| CC#CCOc1ccc(S(=O)(=O)Oc2c(C(=O)NO)cc(C(C)C)cc2C(C)C)cc1 [Example 4, 2-[(Hydroxyamino)carbonyl]-4,6-diisopropylphenyl 4-(2-butynyloxy)benzenesulfonate] | 3% | 45% | 361 nM | 6% |
